Patent US11066412B2, “Substituted pyrrolo[2,1-a]phthalazines and benzo[g]pyrrolo[2,1-a]phthalazines for the treatment of cancer” (Academia Sinica, priority 2017, dated 2021)

Test system: γ-H2AX
Experiment: immunohistochemical staining of tumor xenograft sections, DNA damage marker
Format: in vivo, nude mice
Conditions: FIG. 16, panel B
Description: Tumor xenograft tissue sections on the slides were deparaffinized in xylene twice for 7 min each time. The slides were then rehydrated in graded ethanol, serially from 100% to 70%, followed by rinsing in dH2O. Antigen retrieval was performed using citrate buffer (0.01M, pH 6.0) with incubation in a cooker for 50 mins followed by ambient temperature cooling for 30 min. and then dH2O rinsing. Later slides were subjected to immunohistochemical (IHC) staining with primary antibodies (anti-rabbit CD31 antibody and anti-mouse γ-H2AX antibody) obtained from Abeam® following the manufacturer's instructions (Novolink Polymer Detection system, Leica Biosystems, Wetzlar, Germany).^11 After IHC processing, the slides were scanned digitally using the Panoramic 250 Flash II whole slide scanner and analyzed by 3[…] Panoramic viewer software (3[…] Ltd., Budapest, Hungary).
As BO-2590L is a DNA damaging agent, we thus investigated the effect of BO-2590L on the level of a DNA damage marker, γ-H2AX, via the use of immunohistochemical staining.

Cc1c(CO)c(CO)c2c3ccccc3c(N3CCC(N4CCCCC4)CC3)nn12 [BO-2590, (6-([1,4′-Bipiperidin]-1′-yl)-3-methylpyrrolo[2,1-α]phthalazine-1,2-diyl)dimethanol]
γ-H2AX signals, quantitative analysis: time-dependently increased in γ-H2AX signals
